Experimental data from paper PMC12271471, “Direct synthesis of mycophenolic acid aryl esters with antioxidant and antiproliferative properties” (Scientific Reports, 2025).

Columns and labels:
[1] = test system: PBMCs; experiment: XTT cytotoxicity test on PBMCs; format: cell-based; settings: Homo sapiens, PBMC, 72 h (ESI: 96 h), viability, mean ± SD, read-out: Relative IC50 PBMCs (XTT)
Procedure: (§1) Table 3 presents the IC50 values obtained from the XTT test on PBMCs and the T-Jurkat cell line, using MPA and MMF as standards. These values indicate the concentration of each compound required to reduce the viability of PBMCs (healthy cells) and T-Jurkat cells (T-cell leukemia) by 50% compared to the control. Cells were treated with compounds for 72 h (PBMCs) or 48 h (T-Jurkat), followed by a colorimetric XTT test. The results are illustrated in ESI Fig. S2 as a viability curve in relation to concentration.
Biological evaluation — PBMC and T-Jurkat cells […]
(§2) Human peripheral blood mononuclear cells (PBMCs) were isolated from buffy coats provided by anonymous, healthy volunteers with an average age of 35±4 years during routine transfusion procedure. These samples were received by the Authors from the Regional Centre for Blood Donation and Treatment in Gdańsk (Poland). […]
(§3) solely for PBMCs isolation. PBMCs were suspended in a complete X-VIVO medium, consisting of X-VIVO20, 10% heat-inactivated human AB serum, penicillin (100 U/ml), and streptomycin ([…]).
(§4) MPA derivatives preparation
(§5) To achieve the desired concentrations of the tested compounds, the substances were first dissolved in DMSO to reach a final concentration of 0.01 M. The solutions were then diluted in the appropriate additive-free medium (RPMI-1640 for T-Jurkat cells and X-VIVO20 for PBMCs) to obtain […]
(§6) Peripheral blood mononuclear cells were isolated by gradient centrifugation, as described previously. Buffy coats were diluted with phosphate-buffered saline (PBS, pH = 7.4, ThermoFisher Scientific) in a 1:1 ratio, layered at Ficoll-Paque™ PLUS (VWR International), and centrifuged at 800 × g for 20 minutes. The PBMC layer was collected and washed twice with PBS (1st wash: 600 × g for 10 minutes; 2nd wash: 600 × g for 5 minutes). Cell amount and viability were assessed using the Bio-Rad TC20™ automated cell counter combined with trypan blue staining.
(§7) XTT dye-based in vitro cytotoxicity test
(§8) The cytotoxic effects of mycophenolic acid (MPA) derivatives were assessed using an in vitro XTT-based assay (Roche). PBMCs in complete X-VIVO20 medium and T-Jurkat cells in complete RPMI-1640 medium were seeded into 96-well plates at a concentration of 5∙10^5 cells/50 µl per well. 50 µl of tested compounds were added to the experimental wells to achieve final concentrations of 50, 25, 10, 5, 1, 0.1, and 0.01 µM. The background control consisted of the medium without cells, while untreated cells served as the positive control. After incubating for 48 hours for T-Jurkat cells and 96 hours for PBMCs in a humidified atmosphere with 5% CO2 at 37°C, 50 µl of freshly prepared XTT reagent was added to all wells according to the manufacturer's instructions. The plates were then incubated for an additional 24 hours under the same conditions. The conversion of the water-soluble yellow XTT tetrazolium salt to orange formazan was quantified by measuring the optical density (OD) at 450 nm using an Agilent BioTek Epoch Microplate Spectrophotometer (Agilent Technologies), with a reference wavelength of 690 nm. The results were expressed as IC50 values for compounds that […]
(§9) inhibited cell viability by more than 50%. […]
PBMCs were suspended in a 15 mL centrifuge tube at a concentration of 10-30 × 10⁶ cells in 1 mL of PBS, then, 2 μL of 1 mM VPD 450 dye solution was added, incubated for 15 min at 37°C, washed with a 9-fold volume of warm PBS and centrifuged at 400 x g for 5 min. Then, the cells were suspended in 10 mL of X-VIVO medium with 10% FBS and centrifuged again at 400 x g for 5 min. After suspending the cells in the complete medium, the staining level was checked using flow cytometry. The cells thus obtained were stimulated with anti-CD3/anti-CD28 antibodies as described previously (see VPD450 dye-based in vitro cell proliferation test). To perform the GMP test, a proper amount of GMP was added to each well to reach its final concentration of 50 μM, and then incubated for 72 hours. Proliferative […]

[2] = DPPH radical scavenging test (colorimetric); settings: concentration scavenging 50% of DPPH radicals; 10 min, room temperature, 517 nm; mean ± SD
Procedure: Antioxidative properties of the obtained MPA derivatives were assessed chemically using a colorimetric DPPH test. The IC50 value represents the scavenging activity, defined as the concentration of a compound required to scavenge 50% of DPPH radicals.
Briefly, 400 µL solution of each synthesized compound with different concentrations (20–1000 µg/mL) was added to 1.6 mL DPPH solution (100 µmol/L). After shaking, the mixture was incubated at room temperature in the dark for 10 min, and then the absorbance was measured at 517 nm. The %Scavenging activity was calculated by using the formula: […]
The scavenging activity was expressed as IC50 value, defined as the concentration (mM) of compound required for scavenging DPPH radicals by 50%. IC50 values were determined by linear regression analysis using at least three different concentrations in duplicate.
Three different concentrations were prepared for each sample, while each one was analyzed in duplicate. […] The statistical analysis was performed using Tukey’s HSD test (p < 0.05). The statistical software Statistica 10 software (StatSoft Inc., Tulsa, OK, USA) was implemented for this analysis.

[3] = test system: PBMCs; experiment: VPD450 proliferation test (flow cytometry) on PBMCs; format: cell-based, human; settings: for EC50: Homo sapiens, PBMC, PBMCs stimulated with anti-CD3/anti-CD28 beads, 72 h, mean ± SD; for SI selectivity index PBMCs (IC50/EC50): ratio between IC50 (XTT) and EC50 (VPD450) on PBMCs
Procedure: (§10) These values indicate the concentration of any compound at which proliferation of PBMCs (healthy cells), and T-Jurkat cells (T-cell leukemia), is inhibited by 50% compared to the control. Cells were treated with the compounds for 72 h (PBMCs) or 48 h (T-Jurkat), followed by a […] VPD450 test. The results are presented in ESI Fig. S3 as proliferation curves concerning concentration.
(§11) ESI Figure 3. Concentration-dependent change in proliferation under the treatment of ester derivatives of MPA. (A) VPD450-labelled PBMCs were cultured in the presence of different concentrations (100; 50; 25; 10; 1; 0.1, and 0.01 μM) of MPA, MMF, and ester derivatives, and stimulated with magnetic beads coated with anti-CD3 and anti-CD28 antibodies for 72 hours. (B) VPD450-labelled T-Jurkat cells were cultured in the presence of different concentrations (100; 10; 1; 0.1 and 0.01 μM) of MPA and ester derivatives for 48 hours. The plots were separated based on the type of ester derivative (P or MP). Cell proliferation was analyzed using flow cytometry. The results are expressed […]
(§12) (1 picture or pasted object on this page, not shown here) […]
(§13) inhibited cell viability by more than 50%. Each experiment was conducted in triplicate, and the final […]
(§14) VPD450 dye-based in vitro cell proliferation test
(§15) PBMCs and T-Jurkat cells were washed twice with warm PBS (37°C), re-suspended in fresh PBS at a final concentration of 10-30∙10^6 cells/ml, and labelled with 1 µl of VPD450 (BD Biosciences) at 37°C for 15 minutes, with vortexing every 5 minutes to ensure uniform staining. Subsequently, cells were washed with PBS, then with the complete medium (X-VIVO20 for PBMCs and RPMI-1640 for T-Jurkat cells), next re-suspended in fresh complete medium and seeded into 96-well plates at a concentration of 1∙10^6 cells per well. PBMCs were additionally stimulated with magnetic beads coated with anti-CD3 and anti-CD28 antibodies (Invitrogen) at a 2:1 cell-to-bead ratio. To the experimental wells, 100 µl of the MPA derivatives were added to achieve final concentrations of 50, 25, 10, 5, 1, 0.1, and 0.01 µM. In parallel, control wells containing stained but unstimulated cells and stained, stimulated cells were prepared at the same concentration. Cell proliferation was analyzed using an LSRFortessa flow cytometer (BD Biosciences) and Kaluza C Flow Cytometry Analysis Software (Beckman Coulter). […]
(§16) Statistical analysis was conducted using GraphPad Prism 9 (GraphPad Software Inc).
(§17) Differences between MMF, MPA and its new derivatives were assessed using a two-tailed unpaired Student’s t-test, with statistical significance defined as p < 0.05. EC50 and IC50 values were determined by fitting data to a four-parameter non-linear regression model in GraphPad Prism 9. Statistical significance was evaluated using the t-test.

[4] = test system: T-Jurkat cells; experiment: VPD450 proliferation test (flow cytometry) on T-Jurkat cells; format: cell-based, human; settings: for EC50: Homo sapiens, T-Jurkat, 48 h, mean ± SD; for IS internal selectivity (EC50 PBMCs / EC50 T-Jurkat): ratio between VPD450 EC50 values for PBMCs and T-Jurkat cell line
Procedure: as §10, §11, §12, §13, §14, §15, §16, §17

[5] = test system: T-Jurkat cells; experiment: XTT cytotoxicity test on T-Jurkat cell line; format: cell-based, human
Procedure: as §1
Biological evaluation — PBMC and T-Jurkat cells
The T-Jurkat cell line (Clone E6-1, ATCC TIB-152), derived from a human acute T-cell leukemia, was obtained from the cell bank of the Department of Medical Immunology at the Medical University of Gdańsk. Before experimentation, the cells were thawed and cultured for about 7 days to reach the logarithmic phase of growth. The T-Jurkat cell line was suspended in a complete RPMI medium, which included RPMI-1640, 10% FBS, penicillin (100 U/ml), and streptomycin ([…]).
as §2, §3, §4, §5, §6, §7, §8, §9
PBMCs were suspended in a 15 mL centrifuge tube at a concentration of 10-30 × 10⁶ cells in 1 mL of PBS, then, 2 μL of 1 mM VPD 450 dye solution was added, incubated for 15 min at 37°C, washed with a 9-fold volume of warm PBS and centrifuged at 400 x g for 5 min. Then, the cells were suspended […]

Row | Compound | IC50 [1] [µM] | IC50 [2] [µM] | EC50 [3] [µM] | SI selectivity index PBMCs (IC50/EC50) [3] | EC50 [4] [µM] | IS internal selectivity (EC50 PBMCs / EC50 T-Jurkat) [4] | IC50 ([5]; Homo sapiens, T-Jurkat, 48 h, viability, mean ± SD, read-out: Relative IC50 T-Jurkat (XTT)) [µM] | IS internal selectivity (IC50 PBMCs / IC50 T-Jurkat) ([5]; ratio between XTT IC50 values for PBMCs and T-Jurkat cell line) | SI selectivity index T-Jurkat (IC50/EC50) ([4]; ratio between IC50 (XTT) and EC50 (VPD450) on T-Jurkat cell line)
1 | COc1cc(CCC(C)=O)ccc1OC(=O)CC/C(C)=C/Cc1c(O)c2c(c(C)c1OC)COC2=O [MP6] | 14.71 ± 0.045 | 14900 ± 340 | 1.162 ± 0.003 | 12.664 | 0.662 ± 0.031 | 1.755 |  |  | 
2 | COc1cc(/C=C/C(C)=O)ccc1OC(=O)CC/C(C)=C/Cc1c(O)c2c(c(C)c1OC)COC2=O [MP5] | 30.698 ± 0.024 |  | 11.406 ± 0.003 | 2.691 | 1.08 ± 0.036 | 10.542 | 2.325 ± 0.004 | 13.203 | 2.149
3 | O=C1O[C@H]([C@@H](O)CO)C(O)=C1O [Ascorbic acid, reference compound] |  | 545 |  |  |  |  |  |  | 
4 | Cc1c(C)c2c(c(C)c1O)CCC(C)(C(=O)O)O2 (stereo not drawn) [Trolox, reference compound] |  | 8 |  |  |  |  |  |  | 
5 | COc1c(C)c2c(c(O)c1C/C=C(\C)CCC(=O)Oc1ccc(/C=C/C(C)=O)cc1)C(=O)OC2 [P6] | 8.836 ± 0.02 | 35800 ± 403 | 2.215 ± 0.004 | 3.989 | 2.84 ± 0.033 | 0.780 |  |  | 
6 | C=C[C@@](C)(/C=C/c1ccc(OC(=O)CC/C(C)=C/Cc2c(O)c3c(c(C)c2OC)COC3=O)cc1)CCC=C(C)C [P3] | 14.117 ± 0.007 | 20100 ± 258 | 1.052 ± 0.004 | 13.419 | 1.34 ± 0.035 |  |  |  | 
